Assay results reported in publication PMC9697976, “Giardia lamblia G6PD::6PGL Fused Protein Inhibitors Decrease Trophozoite Viability: A New Alternative against Giardiasis” (International Journal of Molecular Sciences, 2022).
Like-named read-outs stand apart in the source and are kept apart here.

Legend:
G. lamblia trophozoites = assay: Antigiardial activity, trophozoite viability (trypan blue); type: cell-based; settings: Giardia duodenalis, 48 h, read-out: IC50 G. lamblia (trophozoite viability)
Protocol: The trophozoites were incubated in the presence of compounds for 48 h at 37 °C with increasing concentrations of each of the compounds, and later the viability of the trophozoites was determined. The values represent mean ± standard deviation from three independent experiments, and standard errors of the mean were lower than 5%.
The Giardia lamblia WB strain (ATCC number 30957) was grown and cultivated in a modified TYI-S-33 medium supplemented with 10% fetal bovine serum at 37 °C. G. lamblia was harvested from a confluent culture by chilling the tubes on ice for 5–10 min to detach cells, followed by centrifugation at 800× g for 5 min. For the antigiardial activity assay, 5 × 10^4 trophozoites of G. lamblia were incubated with different concentrations of the compounds (31, 62, 125, 250, and 500 µM) in a final volume of 1.5 mL and then incubated for 48 h at 37 °C. After incubation, 75 µL of the treated trophozoites were subcultured individually for another 48 h in a fresh medium without compounds. At the end of this period, the viable trophozoites were counted using trypan blue. Each compound was assayed in three independent experiments. Appropriate controls were tested in each assay, including a sample without compounds and another with only 2% DMSO.

G6PD::6PGL fused enzyme [1] = target: T1, G6PD::6PGL fused enzyme (Giardia intestinalis, UniProt A8BWM5); assay: Second-order inactivation constant (k2) of G6PD::6PGL; type: biochemical, Giardia lamblia; settings: for kinact/KI: read-out: Second-order inactivation constant (k2)
T1 sequence (A8BWM5 entry or part of it): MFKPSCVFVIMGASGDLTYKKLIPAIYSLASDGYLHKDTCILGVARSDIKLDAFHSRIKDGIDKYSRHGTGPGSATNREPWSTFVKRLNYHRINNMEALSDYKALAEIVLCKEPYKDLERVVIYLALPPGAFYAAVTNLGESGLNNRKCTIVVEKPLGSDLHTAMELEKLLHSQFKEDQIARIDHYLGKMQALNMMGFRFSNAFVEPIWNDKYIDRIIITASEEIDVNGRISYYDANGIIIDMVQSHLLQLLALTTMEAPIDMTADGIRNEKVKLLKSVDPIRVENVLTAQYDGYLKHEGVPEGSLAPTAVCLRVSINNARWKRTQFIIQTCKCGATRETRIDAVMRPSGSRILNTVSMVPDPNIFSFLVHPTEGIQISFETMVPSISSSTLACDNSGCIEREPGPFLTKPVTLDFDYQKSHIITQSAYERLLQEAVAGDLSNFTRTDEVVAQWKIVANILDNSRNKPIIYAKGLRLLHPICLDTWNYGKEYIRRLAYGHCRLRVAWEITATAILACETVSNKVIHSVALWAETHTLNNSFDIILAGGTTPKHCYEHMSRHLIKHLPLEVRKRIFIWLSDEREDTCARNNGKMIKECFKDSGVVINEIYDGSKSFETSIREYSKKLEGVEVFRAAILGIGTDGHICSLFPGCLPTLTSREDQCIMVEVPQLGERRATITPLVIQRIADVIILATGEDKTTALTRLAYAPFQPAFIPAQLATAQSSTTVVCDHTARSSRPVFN
Protocol: At the indicated times, aliquots were withdrawn from the samples and assayed for residual activity. Initial velocity was fitted to determine each compound’s pseudo-first-order inactivation constants (k1). […] All experiments were performed in triplicate.
Inactivation assays were performed to determine the rate of each to form the enzyme–inhibitor complex. First, the pseudo-first-order constants (k1) were obtained by incubating 0.2 mg/mL of pure G6PD::6PGL enzyme and different concentrations of compound (0 to 500 µM) at 37 °C in time intervals (0–120 min). After the incubation period, enzyme activity was measured spectrophotometrically following the reduction of NADP^+ at 340 nm for each experimental condition. The results were expressed in terms of the activity percentage against each compound’s concentration. The residual activity data were fitted to a mono-exponential decay model, using the equation AR=A0 e^−kt , where AR is the residual activity at different times, A0 is the activity at the initial time, and k is the pseudo-first-order inactivation constant (min^−1). Subsequently, the constants obtained were plotted against the corresponding inhibitor concentration. A linear regression model was applied to obtain the second-order inactivation constant k2 (M^−1 s^−1).

HT29 cells [2] = assay: In vitro cytotoxicity, XTT assay, HT29; settings: for Selectivity index (SI), CC50 HT29 / IC50 G. lamblia: ratio of CC50/IC50 between mammalian cells and trophozoites; for Decrease of HT29 cell viability: 250 µM compound
Protocol: (§1) An XTT cell proliferation assay determined the viability.
(§2) The cytotoxicity assay was performed using human cell lines Caco-2 (ATCC HTB-37) and HT29 (ATCC HHTB-38) with a Cell Proliferation Kit II (XTT; St Louis, MO, USA). A cell suspension of 2 × 10^5 cells/mL was prepared in Dulbecco’s modified Eagle’s (DMEM) medium, supplemented with 10% inactivated fetal bovine serum and 1% penicillin/streptomycin (5000 U/mL), and 100 µL portions of the suspension were added to the wells of 96-well plates. The plates were incubated for 24 h at 37 °C in an atmosphere of 5% CO2. The medium in each well was replaced with 100 µL medium with compounds at 500, 250, 150, 75, 32, and 16 µM. After 48 h of incubation at 37 °C in an atmosphere of 5% CO2, the viability of cells was determined. The medium in each well was gently replaced with 100 µL of fresh medium, 50 µL of XTT labeling mixture was added per well, the mixture was incubated for four h at 37 °C and 5% CO2, and the absorbance at 495 nm was measured. Each compound was assayed in triplicate via three independent experiments. The CCI50 values were determined using the nonlinear regression function of GraphPad Prism version 6.04 for Windows.

[3] = In vitro cytotoxicity, XTT assay, HT29; settings: human
Protocol: as §1, §2

HsG6PD [4] = target: T2, HsG6PD (Homo sapiens, UniProt P11413); assay: Effect of compounds on HsG6PD activity at 400 µM; type: biochemical
T2 sequence (P11413 whole entry): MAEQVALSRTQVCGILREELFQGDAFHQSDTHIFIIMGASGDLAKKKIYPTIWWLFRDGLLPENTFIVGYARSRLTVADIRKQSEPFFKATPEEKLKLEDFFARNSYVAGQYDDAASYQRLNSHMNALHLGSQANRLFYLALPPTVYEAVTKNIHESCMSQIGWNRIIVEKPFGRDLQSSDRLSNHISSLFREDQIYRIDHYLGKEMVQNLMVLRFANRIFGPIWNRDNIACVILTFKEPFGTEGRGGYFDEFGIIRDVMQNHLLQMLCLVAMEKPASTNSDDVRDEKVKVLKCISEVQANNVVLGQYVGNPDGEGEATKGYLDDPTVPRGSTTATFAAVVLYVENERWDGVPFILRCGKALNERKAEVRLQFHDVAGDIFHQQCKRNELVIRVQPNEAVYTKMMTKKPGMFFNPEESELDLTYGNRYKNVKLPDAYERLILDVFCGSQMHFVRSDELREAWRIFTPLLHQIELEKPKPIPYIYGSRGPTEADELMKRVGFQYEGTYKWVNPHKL
Description: Based on the above, we decided to evaluate the effect in vitro of the compounds in the inactivation of the G6PD::6PGL enzyme.

in vitro = settings: human, Caco-2
Protocol: as §1, §2

G6PD::6PGL fused enzyme [5] = target: T1, G6PD::6PGL fused enzyme; assay: Enzymatic inhibition assay (concentration-dependent inactivation) of G6PD::6PGL; type: biochemical, Giardia lamblia; settings: for inhibition at 200 µM: read-out: Loss of initial G6PD::6PGL activity
Protocol: G6PD::6PGL protein was adjusted at 0.2 mg/mL and incubated in the presence of different concentrations of compounds (0–800 μM). After incubation, aliquots were withdrawn from the samples, and the residual activity was determined. The G6PD::6PGL without compounds was used to determine 100% activity. The assays were carried out in triplicate, and the data represent the mean ± standard error.
The IC50 values of the four selected compounds were determined. […] The assay was performed using a protein concentration of 0.2 mg/mL in buffer T (100 mM Tris–HCl, 30 mM MgCl2, pH 8) with different concentrations of the compounds (0 to 800 µM). The protein was incubated at 37 °C for 2 h after the residual activity of the G6PD domain was measured. The data were plotted as percent activity, where 100% was taken as the enzyme’s activity without compounds. All values were adjusted to the Boltzmann sigmoid equation in the Origin 8.0® program (Northampton, MA, USA) to obtain the IC50 value expressed in µM units.

G6PD::6PGL fused enzyme [6] = target: T1, G6PD::6PGL fused enzyme; assay: Screening of in-house library on G6PD::6PGL activity at 400 µM; type: biochemical, Giardia lamblia
Protocol: The effects of 120 organic molecules from the in-house chemical library of compounds, which were synthesized in the Medicinal Chemistry Laboratory at the Pharmacy Faculty of the Autonomous University Morelos State, include mainly aromatic and non-aromatic heterocyclic compounds with heteroatoms such as nitrogen, oxygen, and sulfur, which were evaluated as possible specific inhibitors of G6PD::6PGL. The assay was carried out following what was reported by Martinez-Rosas et al.; each compound was dissolved in dimethyl sulfoxide (DMSO), and the recombinant enzyme G6PD::6PGL (0.2 mg/mL) was incubated with the compounds at a concentration of 400 µM, for 2 h, at 37 °C. The residual enzymatic activity of the G6PD domain was measured following the spectrophotometric NADP^+ reduction at 340 nm with the standard reaction mixture. Activity data were plotted as percent residual activity, where 100% activity was taken from enzyme samples incubated without a compound.

Caco-2 cells [7] = settings: cited from earlier work
HT29 cells [8] = settings: nitazoxanide; cited from earlier work
Caco-2 cells [9] = assay: in vitro; settings: 250 µM compound
Protocol: as §1, §2

HsG6PD [10] = target: T2, HsG6PD; design: method as in earlier work; settings: ref 24 (Ramirez-Nava et al.); cited from earlier work
[11] = 400 μM compound, read-out: HsG6PD Inhibition (%) at (400 μM)
[12] = read-out: G6PD::6PGL IC50, 0.2 mg/mL enzyme, 0–800 μM compound, 2 h, 37 °C
[13] = read-out: G6PD::6PGL Inhibition (%) at (400 μM), 400 μM compound, 0.2 mg/mL enzyme, 2 h, 37 °C
[14] = read-out: G6PD::6PGL Inhibition (%) at (400 μM)

Row | SMILES | IC50 (G. lamblia trophozoites; 37 °C, WB strain) | kinact/KI (G6PD::6PGL fused enzyme [1]) | Selectivity index (SI), CC50 HT29 / IC50 G. lamblia (HT29 cells [2]) | inhibition at 400 µM (HsG6PD [4]; [11]) | CC50 at 48 h (in vitro) | selectivity ratio at 48 h (in vitro) | inhibition at 200 µM (G6PD::6PGL fused enzyme [5]; 2 h) | IC50 (G6PD::6PGL fused enzyme [5]; [12]) | inhibition at 400 µM (G6PD::6PGL fused enzyme [6]; [13]) | IC50 (G6PD::6PGL fused enzyme [5]) | Decrease of HT29 cell viability (HT29 cells [2]) | Decrease of Caco-2 cell viability (Caco-2 cells [9]) | further results
1 | CCCCCC(=O)Nc1nc([N+](=O)[O-])cs1 [FLP-2] | 15.3 µM | 0.82 M⁻¹ s⁻¹ | 125 | ~20% | 3180 µM | 208 | 40% | 256 µM | 89% | – | – | – | CC50 at 48 h ([3]; HT29 cells): 1910 µM
2 | CC(=O)Oc1ccccc1C(=O)Nc1ncc([N+](=O)[O-])s1 [Nitazoxanide, reference compound] | – | – | 12 | – | – | 7 | – | – | 100% | 78 µM | – | – | IC50 (G. lamblia trophozoites): 4.2 µM; CC50 Caco-2 (literature IC50) (Caco-2 cells [7]; nitazoxanide): 26.8 µM; CC50 HT29 (literature IC50) (HT29 cells [8]): > 50 µM
3 | O=C1NC(=O)C(=Cc2ccc(OCc3ccccc3)cc2)C(=O)N1 [CMC-1] | – | – | – | – | – | – | 100% | – | – | 70 µM | 25% | approximately 20% | IC50 (G. lamblia trophozoites): 24.1 µM; Second-order inactivation constant (k2) (G6PD::6PGL fused enzyme [1]; 0.2 mg/mL enzyme, 37 °C, 0–120 min): 0.97 M⁻¹ s⁻¹; inhibition at 400 µM (HsG6PD [4]; read-out: HsG6PD Inhibition (%) at (400 μM), 400 μM compound): ~34%; inhibition at 400 µM (G6PD::6PGL fused enzyme [6]; [14]): 98%
4 | O=C1CC(=O)NC(=O)N1 [Barbituric acid, reference compound] | – | – | – | – | – | – | – | – | – | > 500 µM | – | – | inhibition at 400 µM (G6PD::6PGL fused enzyme [6]; [14]): 0%
5 | Cc1ncc([N+](=O)[O-])n1CCO [Metronidazole, reference compound] | 4.8 µM | – | – | – | – | – | – | – | – | – | – | – | CC50 Caco-2 (literature IC50) (Caco-2 cells [7]; metronidazole): 19 µM
6 | CCCCOc1ccc(NC(=O)Nc2nc([N+](=O)[O-])cs2)cc1 [CNZ-7] | 8.7 µM | 0.97 M⁻¹ s⁻¹ | 60 | 68% | 640 µM | 74 | 60% | 150 µM | 85% | – | 25% | approximately 20% | CC50 at 48 h ([3]; HT29 cells): 529 µM; IC50 (HsG6PD [10]): 274 µM
7 | O=C(Nc1ccc([N+](=O)[O-])cc1)Nc1nc([N+](=O)[O-])cs1 [CNZ-8] | 15.2 µM | 0.6 M⁻¹ s⁻¹ | 41 | 43% | 633 µM | 41 | 80% | 80 µM | 75% | – | 25% | approximately 20% | CC50 at 48 h [3]: 622 µM
